Experimental data: US20040082557A1, “Methods for treating estrogen-dependent disorders” (priority 2001, published 2004)

Legend:
endometrial explants = assay: Animal model of endometriosis in adult female rats (endometrium autotransplanted under the renal capsule); format: in vivo, rat; details: for volume of the explant: measured one week after the fourth weekly dose
[1] = test system: pain symptoms in premenopausal women; assay: Randomized, double-blind, parallel group clinical study of exemestane on pain symptoms in premenopausal women with endometriosis; format: in vivo, human; details: for ESS Composite Improvement from Visit 6 (Baseline): No / ESS Composite Improvement from Visit 6 (Baseline): Yes: % of total reported
[2] = 25 mg orally per day, Visit 10 (4 weeks of exemestane)
[3] = 25 mg orally per day, Visit 10 (4 weeks of exemestane), improvement = decrease of at least 1 point
[4] = 25 mg orally per day, Visit 14 (8 weeks of exemestane)
[5] = 25 mg orally per day, Visit 18 (follow-up)
[6] = 100 mg orally per day, Visit 10 (4 weeks of exemestane)
[7] = 100 mg orally per day, Visit 10 (4 weeks of exemestane), improvement = decrease of at least 1 point
[8] = 100 mg orally per day, Visit 14 (8 weeks of exemestane)
[9] = 100 mg orally per day, Visit 18 (follow-up)
[10] = either treatment group (25 or 100 mg/day), over the study period

CC(C)C[C@H](NC(=O)[C@@H](Cc1c[nH]c2ccccc12)NC(=O)[C@H](Cc1ccc(O)cc1)NC(=O)[C@H](CO)NC(=O)[C@H](Cc1c[nH]c2ccccc12)NC(=O)[C@H](Cc1c[nH]cn1)NC(=O)[C@@H]1CCC(=O)N1)C(=O)N[C@@H](CCCNC(=N)N)C(=O)N1CCC[C@H]1C(=O)NCC(N)=O [triptorelin]
volume of the explant (endometrial explants; triptorelin alone, subcutaneously once weekly for 4 weeks): dose-related decrease in the volume of the explant

C=C1C[C@@H]2[C@H](CC[C@]3(C)C(=O)CC[C@@H]23)[C@@]2(C)C=CC(=O)C=C12 [Exemestane, 6-methylenandrost-1,4-diene-3,17-dione]
volume of the explant (endometrial explants; exemestane alone, intramuscularly once a week for 4 consecutive weeks): dose-related decrease in the volume of the explant
effect on growth of the endometrial explants, combination (endometrial explants; exemestane in combination with triptorelin at marginally or intermediate effective doses, 4 weeks): additive or synergistic effect
tolerability ([1]; 25 mg and 100 mg, 54 woman subjects who received at least one dose): well tolerated
Dysmenorrhea: Improvement over Visit 6 (Baseline, Start of Treatment): No [1, 2]: 44.0%
Dyspareunia: Improvement over Visit 6 (Baseline, Start of Treatment): No [1, 2]: 35.3%
Pelvic Pain: Improvement over Visit 6 (Baseline, Start of Treatment): No [1, 2]: 44.0%
ESS Scale, Composite Score, Change from Visit 6, Mean ([1]; 25 mg orally per day, Visit 10 (4 weeks of exemestane), 17 patients with 3 endpoints evaluated, Visit 6 mean 5.0588, SD 2.0917, within treatment p 0.002): −2.000
ESS Composite Improvement from Visit 6 (Baseline): No [1, 2]: 56.0%
ESS Composite Improvement from Visit 6 (Baseline): Yes ([1]; 25 mg orally per day, Visit 10 (4 weeks of exemestane), improvement = at least 3-point decrease (3 symptoms) or 2-point (2 symptoms)): 44.0%
Dysmenorrhea: Improvement over Visit 6 (Baseline, Start of Treatment): Yes [1, 3]: 56.0%
Dyspareunia: Improvement over Visit 6 (Baseline, Start of Treatment): Yes [1, 3]: 64.7%
Pelvic Pain: Improvement over Visit 6 (Baseline, Start of Treatment): Yes [1, 3]: 56.0%
Dysmenorrhea: Improvement over Visit 6 (Baseline, Start of Treatment): No [1, 4]: 41.7%
Dysmenorrhea: Improvement over Visit 6 (Baseline, Start of Treatment): Yes [1, 4]: 58.3%
Dyspareunia: Improvement over Visit 6 (Baseline, Start of Treatment): No [1, 4]: 31.6%
Dyspareunia: Improvement over Visit 6 (Baseline, Start of Treatment): Yes [1, 4]: 68.4%
Pelvic Pain: Improvement over Visit 6 (Baseline, Start of Treatment): No [1, 4]: 41.7%
Pelvic Pain: Improvement over Visit 6 (Baseline, Start of Treatment): Yes [1, 4]: 58.3%
ESS Scale, Composite Score, Change from Visit 6, Mean ([1]; 25 mg orally per day, Visit 14 (8 weeks of exemestane), 19 patients, Visit 6 mean 5.1579, SD 1.8257, within treatment p <0.001): −2.000
ESS Composite Improvement from Visit 6 (Baseline): No [1, 4]: 66.7%
ESS Composite Improvement from Visit 6 (Baseline): Yes [1, 4]: 33.3%
Dysmenorrhea: Improvement over Visit 6 (Baseline, Start of Treatment): No [1, 5]: 64.0%
Dysmenorrhea: Improvement over Visit 6 (Baseline, Start of Treatment): Yes [1, 5]: 36.0%
Dyspareunia: Improvement over Visit 6 (Baseline, Start of Treatment): No [1, 5]: 29.4%
Dyspareunia: Improvement over Visit 6 (Baseline, Start of Treatment): Yes [1, 5]: 70.6%
Pelvic Pain: Improvement over Visit 6 (Baseline, Start of Treatment): No [1, 5]: 68.0%
Pelvic Pain: Improvement over Visit 6 (Baseline, Start of Treatment): Yes [1, 5]: 32.0%
ESS Scale, Composite Score, Change from Visit 6, Mean ([1]; 25 mg orally per day, Visit 18 (follow-up), 17 patients, Visit 6 mean 5.0588, SD 1.8028, within treatment p <0.001): −2.000
ESS Composite Improvement from Visit 6 (Baseline): No [1, 5]: 84.0%
ESS Composite Improvement from Visit 6 (Baseline): Yes [1, 5]: 16.0%
Dyspareunia score, Change from Baseline, Mean ± SD ([1]; 25 mg, Visit 10 (4 weeks of exemestane), baseline 1.6 ± 0.7, N 17): −0.9 ± 0.8
Pelvic Pain score, Change from Baseline, Mean ± SD ([1]; 25 mg, Visit 10 (4 weeks of exemestane), baseline 1.8 ± 0.5, N 25): −0.6 ± 0.9
Dysmenorrhea score, Change from Baseline, Mean ± SD ([1]; 25 mg, Visit 10 (4 weeks of exemestane), baseline 2.0 ± 0.6, N 17): −0.9 ± 0.8
Dyspareunia score, Change from Baseline, Mean ± SD ([1]; 25 mg, Visit 14 (8 weeks of exemestane), baseline 1.6 ± 0.7, N 19): −0.8 ± 0.6
Pelvic Pain score, Change from Baseline, Mean ± SD ([1]; 25 mg, Visit 14 (8 weeks of exemestane), baseline 1.8 ± 0.5, N 24): −0.6 ± 0.9
Dysmenorrhea score, Change from Baseline, Mean ± SD ([1]; 25 mg, Visit 14 (8 weeks of exemestane), baseline 2.0 ± 0.6, N 19): −0.8 ± 0.6
Dysmenorrhea: Improvement over Visit 6 (Baseline, Start of Treatment): No [1, 6]: 38.5%
Dyspareunia: Improvement over Visit 6 (Baseline, Start of Treatment): No [1, 6]: 38.9%
Pelvic Pain: Improvement over Visit 6 (Baseline, Start of Treatment): No [1, 6]: 30.8%
ESS Scale, Composite Score, Change from Visit 6, Mean ([1]; 100 mg orally per day, Visit 10 (4 weeks of exemestane), 18 patients, Visit 6 mean 5.9444, SD 2.0364, within treatment p <0.001): −2.5000
ESS Composite Improvement from Visit 6 (Baseline): No [1, 6]: 46.2%
ESS Composite Improvement from Visit 6 (Baseline): Yes ([1]; 100 mg orally per day, Visit 10 (4 weeks of exemestane), improvement = at least 3-point decrease (3 symptoms) or 2-point (2 symptoms)): 53.8%
Dysmenorrhea: Improvement over Visit 6 (Baseline, Start of Treatment): Yes [1, 7]: 61.5%
Dyspareunia: Improvement over Visit 6 (Baseline, Start of Treatment): Yes [1, 7]: 61.1%
Pelvic Pain: Improvement over Visit 6 (Baseline, Start of Treatment): Yes [1, 7]: 69.2%
Dysmenorrhea: Improvement over Visit 6 (Baseline, Start of Treatment): No [1, 8]: 39.1%
Dysmenorrhea: Improvement over Visit 6 (Baseline, Start of Treatment): Yes [1, 8]: 60.9%
Dyspareunia: Improvement over Visit 6 (Baseline, Start of Treatment): No [1, 8]: 47.1%
Dyspareunia: Improvement over Visit 6 (Baseline, Start of Treatment): Yes [1, 8]: 52.9%
Pelvic Pain: Improvement over Visit 6 (Baseline, Start of Treatment): No [1, 8]: 30.4%
Pelvic Pain: Improvement over Visit 6 (Baseline, Start of Treatment): Yes [1, 8]: 69.6%
ESS Scale, Composite Score, Change from Visit 6, Mean ([1]; 100 mg orally per day, Visit 14 (8 weeks of exemestane), 17 patients, Visit 6 mean 5.5882, SD 1.9059, within treatment p <0.001): −2.4118
ESS Composite Improvement from Visit 6 (Baseline): No [1, 8]: 43.5%
ESS Composite Improvement from Visit 6 (Baseline): Yes [1, 8]: 56.5%
Dysmenorrhea: Improvement over Visit 6 (Baseline, Start of Treatment): No [1, 9]: 50.0%
Dysmenorrhea: Improvement over Visit 6 (Baseline, Start of Treatment): Yes [1, 9]: 50.0%
Dyspareunia: Improvement over Visit 6 (Baseline, Start of Treatment): No [1, 9]: 50.0%
Dyspareunia: Improvement over Visit 6 (Baseline, Start of Treatment): Yes [1, 9]: 50.0%
Pelvic Pain: Improvement over Visit 6 (Baseline, Start of Treatment): No [1, 9]: 31.8%
Pelvic Pain: Improvement over Visit 6 (Baseline, Start of Treatment): Yes [1, 9]: 68.2%
ESS Scale, Composite Score, Change from Visit 6, Mean ([1]; 100 mg orally per day, Visit 18 (follow-up), 14 patients, Visit 6 mean 5.5714, SD 1.7852, within treatment p 0.016): −1.4286
ESS Composite Improvement from Visit 6 (Baseline): No [1, 9]: 50.0%
ESS Composite Improvement from Visit 6 (Baseline): Yes [1, 9]: 50.0%
Dyspareunia score, Change from Baseline, Mean ± SD ([1]; 100 mg, Visit 10 (4 weeks of exemestane), baseline 1.9 ± 1.0, N 18): −1.0 ± 1.3
Pelvic Pain score, Change from Baseline, Mean ± SD ([1]; 100 mg, Visit 10 (4 weeks of exemestane), baseline 2.1 ± 0.5, N 26): −0.8 ± 0.7
Dysmenorrhea score, Change from Baseline, Mean ± SD ([1]; 100 mg, Visit 10 (4 weeks of exemestane), baseline 2.1 ± 0.7, N 18): −1.0 ± 1.3
Dyspareunia score, Change from Baseline, Mean ± SD ([1]; 100 mg, Visit 14 (8 weeks of exemestane), baseline 1.9 ± 1.0, N 17): −0.8 ± 0.8
Pelvic Pain score, Change from Baseline, Mean ± SD ([1]; 100 mg, Visit 14 (8 weeks of exemestane), baseline 2.1 ± 0.5, N 23): −0.8 ± 0.8
Dysmenorrhea score, Change from Baseline, Mean ± SD ([1]; 100 mg, Visit 14 (8 weeks of exemestane), baseline 2.1 ± 0.7, N 17): −0.8 ± 0.7
endometriosis symptoms ([1]; 25 or 100 mg orally per day, 2 months): moderate improvement in endometriosis symptoms
blood pressure [1, 10]: Neither blood pressure nor body weight changed significantly
body weight [1, 10]: Neither blood pressure nor body weight changed significantly
hematology, plasma chemistry or urinalysis laboratory assays [1, 10]: No noteworthy changes
